According to patent US11000033B2, “Ketone or oxime compound, and herbicide” (NISSAN CHEMICAL CORPORATION, priority 2014, dated 2021):

Key:
Type in all cases: in vivo
corn [1] = experiment: Test Example 5: effect on crop by foliage application, plastic box (symbol c); settings: 320 g/ha, 3 weeks after application
How it was run: (§1)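 Crop seed is sown alongside grass and broadleaf weed species in spots in sterilized diluvial soil, then covered to a depth of about 1.5 cm. Plants grow in a greenhouse kept at 25° C. to 30° C.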

Avena fatua = experiment: Test Example 4: herbicidal effect by soil treatment (symbol I); settings: application herbicide amount 320 g/ha
How it was run: (§2)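 Seeds were sown in sterilized diluvial soil, covered with about 1.5 cm of soil, and the soil surface was sprayed with a water-diluted emulsion of the compound at a predetermined rate. Plants grew in a greenhouse at 25° C. to 30° C.; effects were scored visually 3 weeks after application.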

Lolium multiflorum Lam. = experiment: Test Example 5: herbicidal effect by foliage application, plastic box (symbol K); settings: 320 g/ha, 3 weeks after application
How it was run: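 Sowing in sterilized diluvial soil, 14 days' greenhouse growth at 25° C. to 30° C., then uniform small-sprayer foliar application of aqueous emulsion dilution; plants scored three weeks afterwards.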

rice plant = experiment: Test Example 5: effect on crop by foliage application, plastic box (symbol b); settings: 320 g/ha, 3 weeks after application
How it was run: as §1

Apera spica-venti = experiment: Test Example 4: herbicidal effect by soil treatment (symbol L); settings: application herbicide amount 320 g/ha
How it was run: as §2

[2] = tested on: Echinochloa crus-galli var. crus-galli; experiment: Test Example 4: herbicidal effect by soil treatment (symbol H); settings: application herbicide amount 320 g/ha
How it was run: as §2

soybean = experiment: Test Example 5: effect on crop by foliage application, plastic box (symbol d); settings: 320 g/ha, 3 weeks after application
How it was run: as §1

rapeseed = experiment: Test Example 4: effect on crop by soil treatment (symbol g); settings: application herbicide amount 320 g/ha
How it was run: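 Crop seeds, among them rice, wheat, beet and rapeseed, were sown in sterilized diluvial soil and covered with about 1.5 cm of soil. Boxes were kept in a greenhouse at 25° C. to 30° C. for plant growth.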

Abutilon theophrasti = experiment: Test Example 4: herbicidal effect by soil treatment (symbol M); settings: application herbicide amount 320 g/ha
How it was run: as §2

[3] = tested on: Echinochloa oryzacola Vasing.; experiment: Test Example 2: herbicidal activity, application during weed generation in submerged conditions (symbol A); settings: Table 23; application herbicide amount 320 g/ha; grade 0-5 by criteria of Test Example 1
How it was run: (§3)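 Weeds emerging under flooded conditions were treated with compound formulated as an emulsion and diluted with water to the intended herbicide amount, poured onto the surface of 4 cm standing water. Seeds had been co-sown in alluvial soil; plants grew at 25° C. to 30° C. and were assessed after 3 weeks.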

Monochoria vaginalis [4] = experiment: Test Example 1: herbicidal activity, application before weed generation in submerged conditions (symbol C); settings: application herbicide amount 320 g/ha
How it was run: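 Paddy pre-emergence test. Formulated emulsion, water-diluted to a predetermined rate, is applied to floodwater on sowing day; rice transplanted at 2.5 leaves. Effect read at 3 weeks on a 0–5 herbicidal-ratio scale.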

corn [5] = experiment: Test Example 4: effect on crop by soil treatment (symbol c); settings: application herbicide amount 320 g/ha
How it was run: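 The test used sterilized diluvial soil. Seed was set down in spots and overlaid with about 1.5 cm of soil before growth in a greenhouse kept at 25° C. to 30° C.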

Scirpus juncoides = experiment: Test Example 2: herbicidal activity, application during weed generation in submerged conditions (symbol B); settings: Table 23; application herbicide amount 320 g/ha; grade 0-5 by criteria of Test Example 1
How it was run: as §3

Digitaria ciliaris = experiment: Test Example 4: herbicidal effect by soil treatment (symbol F); settings: application herbicide amount 320 g/ha
How it was run: as §2

Monochoria vaginalis [6] = experiment: Test Example 2: herbicidal activity, application during weed generation in submerged conditions (symbol C); settings: Table 23; application herbicide amount 320 g/ha; grade 0-5 by criteria of Test Example 1
How it was run: as §3

CON=C(C)CC1CC(O)=C(c2c(C)cc(-n3cc(Cl)cn3)cc2C)C1=O (mixture of isomers) [6-004]
c: corn, effect on crop grade (corn [1]): 4 (Herbicidal ratio of 70% or higher and lower than 90%)
I: Avena fatua, herbicidal effect grade (Avena fatua): 4 (Herbicidal ratio of 70% or higher and lower than 90%)
K: Lolium multiflorum Lam., herbicidal effect grade (Lolium multiflorum Lam.): 5 (Herbicidal ratio of 90% or more (almost completely withered))
b: directly sowed rice plant, effect on crop grade (rice plant): 5 (Herbicidal ratio of 90% or more (almost completely withered))
L: Apera spica-venti, herbicidal effect grade (Apera spica-venti): 5 (Herbicidal ratio of 90% or more (almost completely withered))
H: Echinochloa crus-galli var. crus-galli, herbicidal effect grade [2]: 5 (Herbicidal ratio of 90% or more (almost completely withered))
d: soybean, effect on crop grade (soybean): 1 (Herbicidal ratio of 5% or higher and lower than 20%)
g: rapeseed, effect on crop grade (rapeseed): 4 (Herbicidal ratio of 70% or higher and lower than 90%)
M: Abutilon theophrasti, herbicidal effect grade (Abutilon theophrasti): 0 (Herbicidal ratio of 5% or lower (almost no effect))
Herbicidal effect grade, A: Echinochloa oryzacola Vasing. [3]: 5 (Herbicidal ratio of 90% or more (almost completely withered))
Herbicidal effect grade, C: Monochoria vaginalis (Monochoria vaginalis [4]): 2 (Herbicidal ratio of 20% or higher and lower than 40%)
c: corn, effect on crop grade (corn [5]): 2 (Herbicidal ratio of 20% or higher and lower than 40%)
Herbicidal effect grade, B: Scirpus juncoides (Scirpus juncoides): 4 (Herbicidal ratio of 70% or higher and lower than 90%)
F: Digitaria ciliaris, herbicidal effect grade (Digitaria ciliaris): 5 (Herbicidal ratio of 90% or more (almost completely withered))

CON=C(C)CC1CC(OCC#N)=C(c2c(C)cc(C)cc2C)C1=O (stereo not shown) [1-013]
c: corn, effect on crop grade (corn [1]): 0 (Herbicidal ratio of 5% or lower (almost no effect))
I (Avena fatua) herbicidal effect grade (Avena fatua): 0 (Herbicidal ratio of 5% or lower (almost no effect))
K: Lolium multiflorum Lam., herbicidal effect grade (Lolium multiflorum Lam.): 5 (Herbicidal ratio of 90% or more (almost completely withered))
b: directly sowed rice plant, effect on crop grade (rice plant): 2 (Herbicidal ratio of 20% or higher and lower than 40%)
H (Echinochloa crus-galli var. crus-galli) herbicidal effect grade [2]: 0 (Herbicidal ratio of 5% or lower (almost no effect))
d: soybean, effect on crop grade (soybean): 0 (Herbicidal ratio of 5% or lower (almost no effect))
g (rapeseed) effect on crop grade (rapeseed): 0 (Herbicidal ratio of 5% or lower (almost no effect))
Herbicidal effect grade, C: Monochoria vaginalis (Monochoria vaginalis [6]): 0 (Herbicidal ratio of 5% or lower (almost no effect))
M (Abutilon theophrasti) herbicidal effect grade (Abutilon theophrasti): 0 (Herbicidal ratio of 5% or lower (almost no effect))
Herbicidal effect grade, A: Echinochloa oryzacola Vasing. [3]: 0 (Herbicidal ratio of 5% or lower (almost no effect))
Herbicidal effect grade, C: Monochoria vaginalis (Monochoria vaginalis [4]): 0 (Herbicidal ratio of 5% or lower (almost no effect))
c (corn) effect on crop grade (corn [5]): 0 (Herbicidal ratio of 5% or lower (almost no effect))
Herbicidal effect grade, B: Scirpus juncoides (Scirpus juncoides): 0 (Herbicidal ratio of 5% or lower (almost no effect))
F (Digitaria ciliaris) herbicidal effect grade (Digitaria ciliaris): 0 (Herbicidal ratio of 5% or lower (almost no effect))

CON=C(C)CC1CC(O)=C(c2c(C)cc(C(=O)OC)cc2C)C1=O (stereo not shown) [6-023]
c: corn, effect on crop grade (corn [1]): 3 (Herbicidal ratio of 40% or higher and lower than 70%)
I: Avena fatua, herbicidal effect grade (Avena fatua): 0 (Herbicidal ratio of 5% or lower (almost no effect))
K: Lolium multiflorum Lam., herbicidal effect grade (Lolium multiflorum Lam.): 5 (Herbicidal ratio of 90% or more (almost completely withered))
b: directly sowed rice plant, effect on crop grade (rice plant): 5 (Herbicidal ratio of 90% or more (almost completely withered))
L: Apera spica-venti, herbicidal effect grade (Apera spica-venti): 4 (Herbicidal ratio of 70% or higher and lower than 90%)
H: Echinochloa crus-galli var. crus-galli, herbicidal effect grade [2]: 0 (Herbicidal ratio of 5% or lower (almost no effect))
d: soybean, effect on crop grade (soybean): 0 (Herbicidal ratio of 5% or lower (almost no effect))
g: rapeseed, effect on crop grade (rapeseed): 3 (Herbicidal ratio of 40% or higher and lower than 70%)
M: Abutilon theophrasti, herbicidal effect grade (Abutilon theophrasti): 0 (Herbicidal ratio of 5% or lower (almost no effect))
Herbicidal effect grade, C: Monochoria vaginalis (Monochoria vaginalis [4]): 0 (Herbicidal ratio of 5% or lower (almost no effect))
c: corn, effect on crop grade (corn [5]): 1 (Herbicidal ratio of 5% or higher and lower than 20%)
F: Digitaria ciliaris, herbicidal effect grade (Digitaria ciliaris): 1 (Herbicidal ratio of 5% or higher and lower than 20%)
